Source: patent publication US20080103162A1, “Antipruritics” (priority 2001, published 2008)

How the values were obtained:
Format in all cases: in vivo
wild type mice = assay: compound 48/80-induced scratching behavior in wild type mice (Test Example 2); settings: wild type mice (backcrossed with C57BL/6J); intravenous, five minutes before compound 48/80; FIG. 4(a)
[1] = test system: nociceptine receptor defective mice; assay: compound 48/80-induced scratching behavior in nociceptine receptor defective mice (Test Example 2); settings: intravenous, five minutes before compound 48/80, FIG. 4(b)
male ddY mice = assay: compound 48/80-induced scratching behavior, intravenous administration (Test Example 1); settings: intravenously administered five minutes before compound 48/80 (50 μg/0.1 ml, subcutaneous, back), FIG. 1 to FIG. 3
male ICR mice [2] = assay: spontaneous scratching behavior of mice with cutaneous barrier disruption (Test Example 4); settings: 0.1% in 100% ethanol, applied (100 μl) in vicinity of shaved portion, before vs after application, FIG. 6
Protocol: The rostral back portion of 5 weeks-old male ICR mice was shaved under etherization, and then cutaneous barrier was disrupted by carrying out a treatment of applying a mixed solution of acetone and ether (1:1) to the shaved portion and applying distilled water twice a day every day (10 days). […] The compound was applied (100 μl) in the vicinity of the shaved portion.

male ICR mice [3] = assay: eye scratching behavior induced by instillation of serotonin (Test Example 3); settings: instillation of 10 μl of compound five minutes before 10 μl of 1% serotonin hydrochloride in right eye, FIG. 5
Protocol: After the instillation of 10 μl of 1% serotonin hydrochloride (hereinafter referred to as serotonin) in the right eye of 4-6 weeks-old male ICR mice, the number of scratching behavior in the vicinity of the eye induced by the instillation of serotonin for 10 minutes. […] Five minutes before the instillation of serotonin, the instillation of 10 μl of the compound was performed. In a control group, the instillation of distilled water was performed.

SMILES | scratching behavior suppressing effect (number of scratching behavior for 30 minutes) (wild type mice) | scratching behavior suppressing effect (number of scratching behavior for 30 minutes) [1] | scratching behavior suppressing effect (number of scratching behavior for 30 minutes) (male ddY mice) | suppression of spontaneous scratching behavior induced by cutaneous barrier disruption (number of scratching behavior for 30 minutes) (male ICR mice [2]) | suppression of eye scratching behavior induced by instillation of serotonin (number of scratching behavior for 10 minutes) (male ICR mice [3])
COc1ccc2nc(NC(=O)c3ccc(Cl)cc3)nc(N[C@H]3CCCC[C@H]3NC(=N)N)c2c1.Cl.Cl [compound A, (1R,2S)—N-amidino-2-[2-(4-chlorobenzoylamino)-6-methoxyquinazolin-4-yl]aminocyclohexylamine dihydrochloride] | strong scratching behavior suppressing effect | completely disappeared | strong scratching behavior suppressing effect | – | –
Cc1ccc2nc(NC(=O)c3ccc(Cl)cc3)nc(N[C@H]3CCCC[C@H]3NC(=N)N)c2c1.Cl.Cl [compound D, (1R,2S)—N-amidino-2-{[2-(4-chlorobenzoylamino)-6-methylquinazolin-4-yl]amino}cyclohexylamine dihydrochloride] | – | – | – | strongly suppressed | strongly suppressed
CCc1ccc(OCc2ccccc2C(=O)Nc2ccc3nc(C)cc(N)c3c2)cc1.Cl [compound C, N-(4-amino-2-methyl-6-quinolyl)-2-[(4-ethylphenoxy)methyl]benzamide hydrochloride, reference compound] | – | – | strong scratching behavior suppressing effect | – | –
